Columns and labels:
[1] = tested on: LnCap Human Prostate carcinoma cells; test: in vitro amino acid uptake in LnCap cells; assay type: cell-based
Experimental: (§1) Compounds have been evaluated in vitro for tumor binding specificity (i.e. uptake cells) using a variety of tumor cell lines available in the art, along with reference compounds such as Me-AlB and BCH. Detailed description of these assays can be found in Martarello et al. (2002) Journal of Medicinal Chemistry, 45:2250-2259 and McConathy et al. (2003) Nuclear Medicine and Biology, 30:477-490. […]
(§2) In the in vitro studies the uptake rate of each amino acid compound is measured in each tumor line, as well as the dominant transport mechanisms of each tumor cell line. After trypsinization, cells are resuspended in serum-free media, then counted on a hemocytometer, with viability assessed through Trypan blue staining. […] The vials are placed in a Cobra-II gamma counter (Packard, Meriden, Conn.), with the activity per cell number determined. […] Saline washes are performed as described above, and the filtered cells' radioactivity determined on the gamma counter. […]
(§3) The uptake of all compounds were measured in human and rat cancer cell lines and the dominant transport (“A” and “L”) mechanism of each culture were determined. […]

[2] = tested on: MDA MB231 Human Breast carcinoma cells; test: in vitro amino acid uptake in MDA MB231 cells; assay type: cell-based
Experimental: as §1, §2, §3

## N[C@]1(C(=O)O)CCC[C@@H]1[18F] (single isomer, unassigned; enantiomer 1) [Enantiomer 1, anti-2-[^18F]FACPC]
[1]
  % Dose uptake per 0.5 × 10−6 Cells: 6.5 % Dose/0.5 × 10^−6
[2]
  % Dose uptake per 0.5 × 10−6 Cells: 9.1 % Dose/0.5 × 10^−6

Source: patent publication US20130123618A1, “Imaging Agents” (priority 2008, published 2013)
